Consider eight compounds from PubChem BioAssay (NCI).

Some test systems named below: A498 renal; HCT-15 colon; IGROV1 ovarian; NCI-H23 lung; RPMI-8226 leukemia; SF-295 CNS; SNB-75 CNS; SR leukemia; T-47D breast; U251 CNS.
Holding throughout (test): DTP human tumour cell line panel, 48 h

Values joined by “and” are separate entries in the source; they are usually repeats but may differ in a detail not shown here. Equal values may be shown once.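 In this assay, cells in 96-well plates receive the compound at five concentrations for 48 hours. Endpoints are linearly interpolated between the surrounding concentrations. GI50 marks 50% less growth. TGI: total growth inhibition.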 Where a SMILES comes first, the peptide text is derived from it. Bridges are numbered along the chain shown (N, C = ends). [ ]: non-standard residue; d: D form. The star is where a group is joined. ξ: configuration not given here. ξDab(CH2SO3H) = NC(CCNCS(=O)(=O)O)C(=O)O; Heptanoyl(6-Me) = CC(C)CCCCC(=O)*; Dab = NCC[CH](N)C(=O)O

The TGI is the concentration at which net growth stops. One may read the GI50 as the concentration giving 50% growth inhibition.

Regarding `CC1=CCCC2C1(C)CCC(C)C2(C)Cc1cc(O)ccc1O` (centres undefined), the TGI in the assay with A498 renal is 32.9 µM and 30.3 µM; in the assay on HCT-15 colon, 25.8 µM and 23.7 µM; in the assay on IGROV1 ovarian it was 16.6 µM and 21.6 µM; in the assay on NCI-H23 lung it was 20.4 µM and 17.5 µM; in the assay on RPMI-8226 leukemia it was 9.97 µM and 8.53 µM; in the assay on SF-295 CNS it was 23.5 µM and 21 µM. Besides, the TGI in the assay on SNB-75 CNS is 20.5 µM and 21.7 µM; in the assay on SR leukemia, 24.7 µM; with T-47D breast, 27.3 µM; in the assay with U251 CNS, 15.4 µM and 16.5 µM. In addition, the GI50 was 6.04 µM in the assay with HCT-15 colon, 4.22 µM with IGROV1 ovarian, 7.38 µM in the assay with NCI-H23 lung and 10.4 µM in the assay with SF-295 CNS.

Consider `O=[N+]([O-])c1ccc(C2CC(c3ccccc3)=Nc3ccccc3S2)cc1` (centres undefined), for which the GI50 in the assay with A498 renal is 59.8 µM; in the assay with HCT-15 colon it was 8.03 µM; with IGROV1 ovarian it was 13.3 µM; in the assay with NCI-H23 lung it was more than 100 µM; in the assay on RPMI-8226 leukemia, 2.82 µM; with SF-295 CNS it was more than 100 µM. The GI50 in the assay with SNB-75 CNS was 8.55 µM; with SR leukemia, 3.59 µM; in the assay with T-47D breast, more than 100 µM; in the assay with U251 CNS, 4.7 µM. Further, the TGI is more than 100 µM with A498 renal; more than 100 µM with HCT-15 colon; more than 100 µM in the assay with IGROV1 ovarian; more than 100 µM with NCI-H23 lung; 8.29 µM in the assay on RPMI-8226 leukemia; more than 100 µM in the assay with SF-295 CNS. Also, the TGI with SNB-75 CNS, with SR leukemia, with T-47D breast and in the assay on U251 CNS was more than 100 µM each time.

As for `CC1=NN(c2ccc(S(=O)(=O)O)cc2)C(=O)/C1=C/c1ccc(Cl)cc1`, the TGI in the assay on A498 renal, with HCT-15 colon, in the assay with IGROV1 ovarian, with NCI-H23 lung, with RPMI-8226 leukemia and in the assay on SF-295 CNS was more than 100 µM throughout. Further, the TGI with SNB-75 CNS, with SR leukemia, in the assay with T-47D breast and in the assay on U251 CNS was more than 100 µM each time.

Turning to `CCC(C)C1NC(=O)C(CCNCS(=O)(=O)O)NC(=O)C(NC(=O)C(CCNCS(=O)(=O)O)NC(=O)C(NC(=O)C(CCNCS(=O)(=O)O)NC(=O)CCCCC(C)C)C(C)O)CCNC(=O)C(C(C)O)NC(=O)C(CCNCS(=O)(=O)O)NC(=O)C(CCNCS(=O)(=O)O)NC(=O)C(C(C)CC)NC1=O` (centres undefined) ({Heptanoyl(6-Me)}-[ξDab(CH2SO3H)]T[ξDab(CH2SO3H)][Dab][ξDab(CH2SO3H)]II[ξDab(CH2SO3H)][ξDab(CH2SO3H)]T; lactam 4-C; configuration not given here), the GI50 with A498 renal is 7.07 µM; in the assay on HCT-15 colon it was more than 25 µM; with IGROV1 ovarian it was 13.1 µM; in the assay on NCI-H23 lung, 7.41 µM; with SF-295 CNS, 6.66 µM; in the assay with SNB-75 CNS, 1.58 µM. In addition, the GI50 is 1.32 µM with SR leukemia, more than 25 µM in the assay with T-47D breast and 8.05 µM in the assay with U251 CNS. Besides, the TGI in the assay with A498 renal, in the assay with HCT-15 colon, in the assay on IGROV1 ovarian, in the assay with NCI-H23 lung, with SF-295 CNS and in the assay with SNB-75 CNS was more than 25 µM throughout. Besides, the TGI in the assay on SR leukemia, in the assay on T-47D breast and in the assay on U251 CNS was more than 25 µM each time.

With `CC(C)(C)[Si](C)(C)OC1[C@@H](O[Si](C)(C)C(C)(C)C)[C@@H](CNC(=O)NC(=O)CF)O[C@H]1n1cnc2c(NC(=O)Nc3ccccc3)ncnc21` (some centres undefined), the GI50 was 8.92 µM in the assay on A498 renal; 11.2 µM with HCT-15 colon; 22.5 µM in the assay on IGROV1 ovarian; 14.3 µM in the assay on NCI-H23 lung; 14 µM in the assay with RPMI-8226 leukemia; 8.45 µM with SNB-75 CNS. The GI50 is 4.5 µM in the assay on SR leukemia, 4.7 µM in the assay on T-47D breast and 9.67 µM in the assay on U251 CNS. The TGI with A498 renal is 25.3 µM; in the assay on HCT-15 colon it was more than 50 µM; with IGROV1 ovarian, more than 50 µM; with NCI-H23 lung it was more than 50 µM; in the assay on RPMI-8226 leukemia, more than 50 µM; with SNB-75 CNS, more than 50 µM. The TGI was 32 µM with SR leukemia, more than 50 µM in the assay with T-47D breast and 25.8 µM with U251 CNS.

In the case of `COc1cc(-c2oc3c(OC)cc(OC)c(O)c3c(=O)c2OC)cc(OC)c1OC`, the TGI in the assay on IGROV1 ovarian was more than 100 µM; in the assay on NCI-H23 lung, more than 100 µM; in the assay with RPMI-8226 leukemia it was more than 100 µM; in the assay with SF-295 CNS it was 7.55 µM; with SNB-75 CNS it was 5.06 µM; in the assay with SR leukemia it was more than 100 µM. The TGI with T-47D breast and with U251 CNS was more than 100 µM in each case.

With `CCNC(=O)Nc1ccc(Oc2ccnc3ccc4c(ccn4C)c23)cc1`, the GI50 in the assay on HCT-15 colon was 37.9 µM; with IGROV1 ovarian it was more than 100 µM; in the assay with NCI-H23 lung, more than 100 µM; in the assay with RPMI-8226 leukemia, more than 100 µM; with SF-295 CNS it was 18.9 µM; in the assay on SNB-75 CNS, 59.9 µM. Besides, the values for the GI50 with SR leukemia, in the assay with T-47D breast and in the assay with U251 CNS were 12.1 µM, 23.2 µM and 20.6 µM, respectively. In addition, the TGI in the assay on HCT-15 colon was more than 100 µM; in the assay with IGROV1 ovarian it was more than 100 µM; in the assay with NCI-H23 lung it was more than 100 µM; in the assay on RPMI-8226 leukemia, more than 100 µM; in the assay with SF-295 CNS, 72.1 µM; with SNB-75 CNS, more than 100 µM. In addition, the figures for the TGI in the assay with SR leukemia, in the assay on T-47D breast and with U251 CNS were more than 100 µM, 62.1 µM and 44.7 µM, respectively.

In the case of `C=C1C(=O)O[C@H]2[C@H]1CC/C(C=Nc1c(N)cc(C(F)(F)F)cc1C(F)(F)F)=C\CC[C@@]1(C)O[C@@H]21`, the GI50 was 1.49 µM in the assay on A498 renal; 1.05 µM in the assay on HCT-15 colon; 1.77 µM in the assay on NCI-H23 lung; 0.441 µM in the assay with RPMI-8226 leukemia; 5.1 µM with SF-295 CNS; 1.78 µM in the assay on SNB-75 CNS. For the same compound, the figures for the GI50 in the assay on SR leukemia, in the assay with T-47D breast and in the assay on U251 CNS were 0.567 µM, 0.55 µM and 1.56 µM, respectively. For the same compound, the total growth inhibition concentration (TGI) came to 3.51 µM in the assay with A498 renal; 3.73 µM in the assay with HCT-15 colon; 4.17 µM in the assay on NCI-H23 lung; 3.26 µM in the assay on RPMI-8226 leukemia; 17.1 µM in the assay on SF-295 CNS; 15.4 µM in the assay on SNB-75 CNS. Further, the TGI in the assay on SR leukemia amounted to 5.17 µM; in the assay with T-47D breast it was 2.64 µM; in the assay with U251 CNS it was 2.98 µM.
